From PubChem BioAssay AID2060338 (Molecular Pharmacology Branch, DTP, NCI, 2025)
Where “and” joins values, the source holds several entries; their conditions need not be identical. Identical values can stand only once.

System: 556581-035-R-J1-PDC spheroids with HUVEC/MSC, viability
Assay: Anticancer human tumor 556581-035-R-J1-PDC patient-derived ovarian carcinoma cell line growth inhibition [IpAb]
Details: for viability, T/C: stronger effect = lower value
Outline: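 Multi-cell spheroids of 60% tumour cells, 25% HUVEC and 15% MSC in ultra-low-attachment U-bottom wells, treated with agents combined with ipatasertib or abemaciclib. Half-log ranges top out near clinical Cmax, or 10 microM when Cmax is unknown.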

[1] = curve of first compound, second compound 0.1 µM
[2] = curve of first compound, second compound 0.316 µM
[3] = curve of first compound, second compound 1 µM
[4] = second compound 0.1 µM, first compound 0.00316 µM
[5] = second compound 0.1 µM, first compound 0.01 µM
[6] = second compound 0.1 µM, first compound 0.0316 µM
[7] = second compound 0.1 µM, first compound 0.1 µM
[8] = second compound 0.1 µM, first compound 0.316 µM
[9] = second compound 0.1 µM, first compound 1 µM
[10] = second compound 0.316 µM, first compound 0.00316 µM
[11] = second compound 0.316 µM, first compound 0.01 µM
[12] = second compound 0.316 µM, first compound 0.0316 µM
[13] = second compound 0.316 µM, first compound 0.1 µM
[14] = second compound 0.316 µM, first compound 0.316 µM
[15] = second compound 0.316 µM, first compound 1 µM
[16] = second compound 1 µM, first compound 0.00316 µM
[17] = second compound 1 µM, first compound 0.01 µM
[18] = second compound 1 µM, first compound 0.0316 µM
[19] = second compound 1 µM, first compound 0.1 µM
[20] = second compound 1 µM, first compound 0.316 µM
[21] = second compound 1 µM, first compound 1 µM
[22] = curve of first compound, second compound 3.16 µM
[23] = curve of first compound, second compound 10 µM
[24] = second compound 0.1 µM, first compound 0.000316 µM
[25] = second compound 0.1 µM, first compound 0.001 µM
[26] = second compound 0.316 µM, first compound 0.000316 µM
[27] = second compound 0.316 µM, first compound 0.001 µM
[28] = second compound 1 µM, first compound 0.000316 µM
[29] = second compound 1 µM, first compound 0.001 µM
[30] = second compound 3.16 µM, first compound 0.000316 µM
[31] = second compound 3.16 µM, first compound 0.001 µM
[32] = second compound 3.16 µM, first compound 0.00316 µM
[33] = second compound 3.16 µM, first compound 0.01 µM
[34] = second compound 3.16 µM, first compound 0.0316 µM
[35] = second compound 3.16 µM, first compound 0.1 µM
[36] = second compound 10 µM, first compound 0.000316 µM
[37] = second compound 10 µM, first compound 0.001 µM
[38] = second compound 10 µM, first compound 0.00316 µM
[39] = second compound 10 µM, first compound 0.01 µM
[40] = second compound 10 µM, first compound 0.0316 µM
[41] = second compound 10 µM, first compound 0.1 µM
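Also: spheroids exposed to compounds for 7 days before readout.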

## COc1c(OCCCN2CCOCC2)ccc2c3n(c(=NC(=O)c4cnc(N)nc4)nc12)CCN3 + CCN1CCN(Cc2ccc(Nc3ncc(F)c(-c4cc(F)c5nc(C)n(C(C)C)c5c4)n3)nc2)CC1
Curve of first compound, second compound 0.01 µM
  IC50: 0.0147 µM
Curve of first compound, second compound 0.0316 µM
  IC50: 0.0188 µM
[1]
  IC50: 0.0219 µM
[2]
  IC50: 0.0212 µM
[3]
  IC50: 0.0124 µM
Second compound 0.01 µM, first compound 0.00316 µM
  viability, T/C: 76.3%
Second compound 0.01 µM, first compound 0.01 µM
  viability, T/C: 49.2%
Second compound 0.01 µM, first compound 0.0316 µM
  viability, T/C: 39.6%
Second compound 0.01 µM, first compound 0.1 µM
  viability, T/C: 29.9%
Second compound 0.01 µM, first compound 0.316 µM
  viability, T/C: 12.4%
Second compound 0.01 µM, first compound 1 µM
  viability, T/C: 3.84%
Second compound 0.0316 µM, first compound 0.00316 µM
  viability, T/C: 77.2%
Second compound 0.0316 µM, first compound 0.01 µM
  viability, T/C: 53.8%
Second compound 0.0316 µM, first compound 0.0316 µM
  viability, T/C: 43.9%
Second compound 0.0316 µM, first compound 0.1 µM
  viability, T/C: 32.4%
Second compound 0.0316 µM, first compound 0.316 µM
  viability, T/C: 11.2%
Second compound 0.0316 µM, first compound 1 µM
  viability, T/C: 2.33%
[4]
  viability, T/C: 84%
[5]
  viability, T/C: 60.9%
[6]
  viability, T/C: 40.3%
[7]
  viability, T/C: 34.4%
[8]
  viability, T/C: 11.3%
[9]
  viability, T/C: 2%
[10]
  viability, T/C: 84.9%
[11]
  viability, T/C: 63.2%
[12]
  viability, T/C: 41.2%
[13]
  viability, T/C: 29.9%
[14]
  viability, T/C: 7.71%
[15]
  viability, T/C: 3.06%
[16]
  viability, T/C: 59.9%
[17]
  viability, T/C: 51.7%
[18]
  viability, T/C: 40.4%
[19]
  viability, T/C: 29.8%
[20]
  viability, T/C: 12%
[21]
  viability, T/C: 2.02%

## Cn1ncnc1[C@H]1c2n[nH]c(=O)c3cc(F)cc(c23)N[C@@H]1c1ccc(F)cc1 + CC(C)NCC(C(=O)N1CCN(c2ncnc3c2C(C)CC3O)CC1)c1ccc(Cl)cc1
[1]
  IC50: > 0.1 µM
[2]
  IC50: 0.0943 µM
[3]
  IC50: > 0.1 µM
[22]
  IC50: > 0.1 µM
[23]
  IC50: < 0.000316 µM
[24]
  viability, T/C: 106%
[25]
  viability, T/C: 93%
[4]
  viability, T/C: 88%
[5]
  viability, T/C: 86.1%
[6]
  viability, T/C: 82.6%
[7]
  viability, T/C: 64.2%
[26]
  viability, T/C: 92.7%
[27]
  viability, T/C: 87.5%
[10]
  viability, T/C: 78%
[11]
  viability, T/C: 59.7%
[12]
  viability, T/C: 67.2%
[13]
  viability, T/C: 46.8%
[28]
  viability, T/C: 70.6%
[29]
  viability, T/C: 60%
[16]
  viability, T/C: 65.9%
[17]
  viability, T/C: 52.2%
[18]
  viability, T/C: 65.4%
[19]
  viability, T/C: 55.4%
[30]
  viability, T/C: 51.2%
[31]
  viability, T/C: 54.1%
[32]
  viability, T/C: 51.5%
[33]
  viability, T/C: 54.8%
[34]
  viability, T/C: 44.2%
[35]
  viability, T/C: 54.8%
[36]
  viability, T/C: 48.6%
[37]
  viability, T/C: 46.3%
[38]
  viability, T/C: 42.9%
[39]
  viability, T/C: 35.6%
[40]
  viability, T/C: 44.2%
[41]
  viability, T/C: 36.2%

## C=CCn1c(=O)c2cnc(Nc3ccc(N4CCN(C)CC4)cc3)nc2n1-c1cccc(C(C)(C)O)n1
Compound 0.0316 µM
  viability, T/C: 102% and 109%
Compound 0.1 µM
  viability, T/C: 72.1% and 83.2%
Compound 0.316 µM
  viability, T/C: 28.2% and 29.8%
Compound 1 µM
  viability, T/C: 39.7% and 41.9%
Compound 3.16 µM
  viability, T/C: 50.2% and 42%
Compound 10 µM
  viability, T/C: 36.3% and 35.7%
Curve of compound
  IC50: 0.214 µM and 0.23 µM

## CC(C)n1nc(-c2ccc3oc(N)nc3c2)c2c(N)ncnc21 + CC(C)NCC(C(=O)N1CCN(c2ncnc3c2C(C)CC3O)CC1)c1ccc(Cl)cc1
[1]
  IC50: 0.00646 µM
[2]
  IC50: 0.006 µM
[3]
  IC50: 0.00358 µM
[22]
  IC50: 0.00147 µM
[23]
  IC50: < 0.000316 µM
[24]
  viability, T/C: 87.8%
[25]
  viability, T/C: 68.8%
[4]
  viability, T/C: 60.1%
[5]
  viability, T/C: 47.6%
[6]
  viability, T/C: 29.3%
[7]
  viability, T/C: 24.7%
[26]
  viability, T/C: 69.5%
[27]
  viability, T/C: 65.1%
[10]
  viability, T/C: 58%
[11]
  viability, T/C: 40.9%
[12]
  viability, T/C: 36.6%
[13]
  viability, T/C: 21.3%
[28]
  viability, T/C: 58.6%
[29]
  viability, T/C: 67.1%
[16]
  viability, T/C: 50.4%
[17]
  viability, T/C: 34%
[18]
  viability, T/C: 28.6%
[19]
  viability, T/C: 25.2%
[30]
  viability, T/C: 63.4%
[31]
  viability, T/C: 52.4%
[32]
  viability, T/C: 44.1%
[33]
  viability, T/C: 34.1%
[34]
  viability, T/C: 27.5%
[35]
  viability, T/C: 18.5%
[36]
  viability, T/C: 48%
[37]
  viability, T/C: 44%
[38]
  viability, T/C: 36.8%
[39]
  viability, T/C: 25.7%
[40]
  viability, T/C: 17.1%
[41]
  viability, T/C: 16.4%

## C=CCn1c(=O)c2cnc(Nc3ccc(N4CCN(C)CC4)cc3)nc2n1-c1cccc(C(C)(C)O)n1 + CC(C)NCC(C(=O)N1CCN(c2ncnc3c2C(C)CC3O)CC1)c1ccc(Cl)cc1
[1]
  IC50: 0.217 µM
[2]
  IC50: 0.186 µM
[3]
  IC50: 0.145 µM
[22]
  IC50: 0.071 µM
[23]
  IC50: < 0.0316 µM
[6]
  viability, T/C: 106%
[7]
  viability, T/C: 82.7%
[8]
  viability, T/C: 27.3%
[9]
  viability, T/C: 31.7%
Second compound 0.1 µM, first compound 3.16 µM
  viability, T/C: 42.9%
Second compound 0.1 µM, first compound 10 µM
  viability, T/C: 34.8%
[12]
  viability, T/C: 94.4%
[13]
  viability, T/C: 75.8%
[14]
  viability, T/C: 22.9%
[15]
  viability, T/C: 26.4%
Second compound 0.316 µM, first compound 3.16 µM
  viability, T/C: 35.1%
Second compound 0.316 µM, first compound 10 µM
  viability, T/C: 27.5%
[18]
  viability, T/C: 64.2%
[19]
  viability, T/C: 62.7%
[20]
  viability, T/C: 18.9%
[21]
  viability, T/C: 22%
Second compound 1 µM, first compound 3.16 µM
  viability, T/C: 27.4%
Second compound 1 µM, first compound 10 µM
  viability, T/C: 26.4%
[34]
  viability, T/C: 60.8%
[35]
  viability, T/C: 45.5%
Second compound 3.16 µM, first compound 0.316 µM
  viability, T/C: 17.2%
Second compound 3.16 µM, first compound 1 µM
  viability, T/C: 13.2%
Second compound 3.16 µM, first compound 3.16 µM
  viability, T/C: 23.2%
Second compound 3.16 µM, first compound 10 µM
  viability, T/C: 22.8%
[40]
  viability, T/C: 43.3%
[41]
  viability, T/C: 35.9%
Second compound 10 µM, first compound 0.316 µM
  viability, T/C: 14.8%
Second compound 10 µM, first compound 1 µM
  viability, T/C: 11.6%
Second compound 10 µM, first compound 3.16 µM
  viability, T/C: 18.2%
Second compound 10 µM, first compound 10 µM
  viability, T/C: 19.7%

## CC(=O)c1c(C)c2cnc(Nc3ccc(N4CCNCC4)cn3)nc2n(C2CCCC2)c1=O
Compound 0.000949 µM
  viability, T/C: 92.6% and 100%
Compound 0.003 µM
  viability, T/C: 125% and 99.8%
Compound 0.00949 µM
  viability, T/C: 91.4% and 106%
Compound 0.03 µM
  viability, T/C: 106% and 104%
Compound 0.0949 µM
  viability, T/C: 94.1% and 108%
Compound 0.3 µM
  viability, T/C: 99.7% and 95.6%
Curve of compound
  IC50: > 0.3 µM

## C=CC(=O)N1CCN(c2nc(=O)n(-c3c(C)ccnc3C(C)C)c3nc(-c4c(O)cccc4F)c(F)cc23)C(C)C1 (stereo unspecified)
Compound 0.0316 µM
  viability, T/C: 107% and 97.3%
Compound 0.1 µM
  viability, T/C: 97.5% and 113%
Compound 0.316 µM
  viability, T/C: 113% and 118%
Compound 1 µM
  viability, T/C: 106% and 105%
Compound 3.16 µM
  viability, T/C: 102% and 126%
Compound 10 µM
  viability, T/C: 31.9% and 31.5%
Curve of compound
  IC50: 7.44 µM and 7.68 µM
